IC50 data for 21 compounds are collected here from patent publication US11420975B2, “Substituted imidazo[1,5-a]pyrazines as Bruton's tyrosine kinase inhibitors” (TRANSTHERA SCIENCES (NANJING), INC., priority 2018, dated 2022).

One assay has as its target BTK(wt) (Homo sapiens (Human), UniProt Q06187). Kind of assay: In vitro inhibitory activity against BTK(wt) enzyme (33P-ATP filter binding). The class given is biochemical. Conditions: class symbols. As to the method: (§1) The substrate solution was prepared by adding the substrate poly(Glu, Tyr) sodium salt (Sigma Aldrich, St. Louis, Mo.) to the substrate reaction buffer (20 mM Hepes (pH 7.5), 10 mM MgCl2, 1 mM EGTA, 0.02% Brij35, 0.02 mg/mL BSA, 0.1 mM Na3VO4, 2 mM DTT and 1% DMSO) (final substrate concentration in the reaction solution was 0.2 μM). Test compound was formulated into stock solutions at 10 mM concentration with 100% DMSO, and 3-fold serial dilution for 10 doses was performed in a 384-well cyclic olefin copolymer LDV microplate. […] Test compound in 100% DMSO was then added to the kinase reaction mixture by acoustic liquid transfer technology (Echo 550; nanoliter range) (Labcyte Inc, Sunnyvale, Calif.) and incubated for 20 min at room temperature. 33P-ATP (specific activity 10 μCi/μL) was added to the reaction mixture to initiate the reaction, followed by incubation at room temperature for 2 h. A small portion of the reaction mixture was dropped onto P-81 ion exchange filter paper (Whatman). After washing the unbound phosphate from the filter paper with 0.75% phosphate buffer (three times) and drying, the remaining radioactivity on the filter paper was measured. The kinase activity was expressed as the percentage of the remaining kinase activity in the test sample to the kinase activity in the vehicle (dimethyl sulfoxide) blank control. IC50 values were calculated by curve fitting the data obtained using Prism (GraphPad Software).

The target of another assay is BTK(C481S) (Homo sapiens (Human), UniProt Q06187, C481S). Kind of assay: In vitro inhibitory activity against BTK(C481S) enzyme (33P-ATP filter binding). To be noted: class symbols; read-out: IC50 BTK(C48IS). The class given is biochemical. As to the method: as §1
Sequence of BTK(C481S) (Q06187 whole entry C481S): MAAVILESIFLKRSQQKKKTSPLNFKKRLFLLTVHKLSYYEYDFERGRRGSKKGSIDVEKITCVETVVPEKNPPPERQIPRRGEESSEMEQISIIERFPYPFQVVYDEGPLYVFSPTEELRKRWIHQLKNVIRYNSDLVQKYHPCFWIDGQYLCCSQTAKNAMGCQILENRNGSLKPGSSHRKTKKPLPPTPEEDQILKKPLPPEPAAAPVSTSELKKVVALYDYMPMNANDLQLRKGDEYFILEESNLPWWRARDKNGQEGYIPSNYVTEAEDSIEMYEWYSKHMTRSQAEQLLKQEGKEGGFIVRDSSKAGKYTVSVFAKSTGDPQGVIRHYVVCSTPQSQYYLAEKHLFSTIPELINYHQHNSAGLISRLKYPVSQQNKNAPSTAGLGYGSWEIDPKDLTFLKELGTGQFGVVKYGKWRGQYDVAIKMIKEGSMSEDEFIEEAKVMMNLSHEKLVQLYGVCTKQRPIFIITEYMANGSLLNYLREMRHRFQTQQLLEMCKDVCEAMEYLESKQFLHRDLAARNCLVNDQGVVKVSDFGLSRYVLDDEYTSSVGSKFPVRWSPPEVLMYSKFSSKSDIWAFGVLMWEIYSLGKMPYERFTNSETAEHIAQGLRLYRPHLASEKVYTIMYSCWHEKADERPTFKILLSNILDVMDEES

Sequence of BTK(wt) (Q06187 whole entry): as the sequence (Q06187 whole entry C481S) above, with S481C counted along it

For the compound `CC#CC(=O)NC12CCC(c3nc(-c4ccc(C(=O)Nc5cc(F)ccn5)cc4)c4c(N)nccn34)(CC1)C2` [Compound A-7-2, 4-(8-amino-3-(4-(but-2-ynamido)bicyclo[2.2.1]heptan-1-yl)imidazo[1,5-a]pyrazin-1-yl)-N-(4-fluoropyridin-2-yl)benzamide], the IC50 was in the range of 1 to 10 nM at BTK(wt) and 0.1 to 1 nM on BTK(C481S).

On to `CC#CC(=O)NC12CCC(c3nc(-c4ccc(C(=O)Nc5cc(C(F)(F)F)ccn5)cc4)c4c(N)nccn34)(CC1)C2` [Compound A-7-3, 4-(8-amino-3-(4-(but-2-ynamido)bicyclo[2.2.1]heptan-1-yl)imidazo[1,5-a]pyrazin-1-yl)-N-(4-(trifluoromethyl)pyridin-2-yl)benzamide], for which the half-maximal inhibitory concentration (IC50) at BTK(wt) and at BTK(C481S) was 0.1 to 1 nM throughout.

Consider `CC#CC(=O)NC12CCC(c3nc(-c4ccc(C(=O)Nc5cc(C#N)ccn5)cc4)c4c(N)nccn34)(CC1)C2` [Compound A-7-5, 4-(8-amino-3-(4-(but-2-ynamido)bicyclo[2.2.1]heptan-1-yl)imidazo[1,5-a]pyrazin-1-yl)-N-(4-cyanopyridin-2-yl)benzamide], for which the results for the IC50 at BTK(wt) and on BTK(C481S) were 1 to 10 nM and 0.1 to 1 nM, respectively.

`CC#CC(=O)NC12CCC(c3nc(-c4ccc(C(=O)Nc5cc(C(F)(F)F)ccn5)cc4F)c4c(N)nccn34)(CC1)C2` [Compound A-7-9, 4-(8-amino-3-(4-(but-2-ynamido)bicyclo[2.2.1]heptan-1-yl)imidazo[1,5-a]pyrazin-1-yl)-3-fluoro-N-(4-(trifluoromethyl)pyridin-2-yl)benzamide]: the IC50 lay in the range of 1 to 10 nM on BTK(wt) and 0.1 to 1 nM on BTK(C481S).

Regarding `CC#CC(=O)NC12CCC(c3nc(-c4ccc(CNC(=O)c5cc(F)ccc5OC)cc4)c4c(N)nccn34)(CC1)C2` [Compound A-7-12, N-(4-(8-amino-3-(4-(but-2-ynamido)bicyclo[2.2.1]heptan-1-yl)imidazo[1,5-a]pyrazin-1-yl)benzyl)-5-fluoro-2-methoxybenzamide], the IC50 at BTK(wt) is 1 to 10 nM; on BTK(C481S), 0.1 to 1 nM.

On to `CC#CC(=O)NC12CCC(c3nc(-c4ccc(Oc5ccccc5)cc4)c4c(N)nccn34)(CC1)C2` [Compound A-7-14, N-(4-(8-amino-1-(4-phenoxyphenyl)imidazo[1,5-a]pyrazin-3-yl)bicyclo[2.2.1]heptan-1-yl)but-2-ynamide], for which the half-maximal inhibitory concentration (IC50) at BTK(wt) fell in the range of 1 to 10 nM; at BTK(C481S) it was 0.1 to 1 nM.

For `COC/C=C/C(=O)NC12CCC(c3nc(-c4ccc(C(=O)Nc5cc(C(F)(F)F)ccn5)cc4)c4c(N)nccn34)(CC1)C2` [Compound A-10-1, (E)-4-(8-amino-3-(4-(4-methoxybut-2-enamido)bicyclo[2.2.1]heptan-1-yl)imidazo[1,5-a]pyrazin-1-yl)-N-(4-(trifluoromethyl)pyridin-2-yl)benzamide], the IC50 on BTK(wt) lay within 1 to 10 nM; on BTK(C481S), 0.1 to 1 nM.

Regarding `C=CC(=O)NC12CCC(c3nc(-c4ccc(C(=O)Nc5cc(C(F)(F)F)ccn5)cc4)c4c(N)nccn34)(CC1)C2` [Compound A-10-3, 4-(3-(4-acrylamidobicyclo[2.2.1]heptan-1-yl)-8-aminoimidazo[1,5-a]pyrazin-1-yl)-N-(4-(trifluoromethyl)pyridin-2-yl)benzamide], the IC50 on BTK(wt) fell in the range of 1 to 10 nM; on BTK(C481S), 0.1 to 1 nM.

Turning to `CC1(C(=O)NC23CCC(c4nc(-c5ccc(C(=O)Nc6cc(C(F)(F)F)ccn6)cc5)c5c(N)nccn45)(CC2)C3)COC1` [Compound A-10-5, N-(4-(8-amino-1-(4-((4-(trifluoromethyl)pyridin-2-yl)carbamoyl)phenyl)imidazo[1,5-a]pyrazin-3-yl)bicyclo[2.2.1]heptan-1-yl)-3-methyloxetane-3-carboxamide], the IC50 at BTK(wt) was 1 to 10 nM; at BTK(C481S) it was at most 0.1 nM.

On to `CC(C)(O)C(=O)NC12CCC(c3nc(-c4ccc(C(=O)Nc5cc(C(F)(F)F)ccn5)cc4)c4c(N)nccn34)(CC1)C2` [Compound A-10-6, 4-(8-amino-3-(4-(2-hydroxy-2-methylpropanamido)bicyclo[2.2.1]heptan-1-yl)imidazo[1,5-a]pyrazin-1-yl)-N-(4-(trifluoromethyl)pyridin-2-yl)benzamide], for which the figures for the IC50 on BTK(wt) and on BTK(C481S) were 1 to 10 nM and at most 0.1 nM, respectively.

On to `COCC(=O)NC12CCC(c3nc(-c4ccc(C(=O)Nc5cc(C(F)(F)F)ccn5)cc4)c4c(N)nccn34)(CC1)C2` [Compound A-10-7, 4-(8-amino-3-(4-(2-methoxyacetamido)bicyclo[2.2.1]heptan-1-yl)imidazo[1,5-a]pyrazin-1-yl)-N-(4-(trifluoromethyl)pyridin-2-yl)benzamide], for which the results for the IC50 at BTK(wt) and on BTK(C481S) were 1 to 10 nM and 0.1 to 1 nM, respectively.

`COCCC(=O)NC12CCC(c3nc(-c4ccc(C(=O)Nc5cc(C(F)(F)F)ccn5)cc4)c4c(N)nccn34)(CC1)C2` [Compound A-10-8, 4-(8-amino-3-(4-(3-methoxypropanamido)bicyclo[2.2.1]heptan-1-yl)imidazo[1,5-a]pyrazin-1-yl)-N-(4-(trifluoromethyl)pyridin-2-yl)benzamide]: the figures for the IC50 at BTK(wt) and on BTK(C481S) were 1 to 10 nM and at most 0.1 nM, respectively.

For `Nc1nccn2c(C34CCC(NC(=O)C5CCCO5)(CC3)C4)nc(-c3ccc(C(=O)Nc4cc(C(F)(F)F)ccn4)cc3)c12` (stereo not drawn) [Compound A-10-11, N-(4-(8-amino-1-(4-((4-(trifluoromethyl)pyridin-2-yl)carbamoyl)phenyl)imidazo[1,5-a]pyrazin-3-yl)bicyclo[2.2.1]heptan-1-yl)tetrahydrofuran-2-carboxamide], the IC50 lay within 1 to 10 nM at BTK(wt) and 0.1 to 1 nM on BTK(C481S).

Turning to `N#CC1(C(=O)NC23CCC(c4nc(-c5ccc(C(=O)Nc6cc(C(F)(F)F)ccn6)cc5)c5c(N)nccn45)(CC2)C3)CC1` [Compound A-10-12, 4-(8-amino-3-(4-(1-cyanocyclopropanecarboxamido)bicyclo[2.2.1]heptan-1-yl)imidazo[1,5-a]pyrazin-1-yl)-N-(4-(trifluoromethyl)pyridin-2-yl)benzamide], the IC50 at BTK(wt) was in the range of 1 to 10 nM; at BTK(C481S), 0.1 to 1 nM.

For `N#CCC(=O)NC12CCC(c3nc(-c4ccc(C(=O)Nc5cc(C(F)(F)F)ccn5)cc4)c4c(N)nccn34)(CC1)C2` [Compound A-10-13, 4-(8-amino-3-(4-(2-cyanoacetamido)bicyclo[2.2.1]heptan-1-yl)imidazo[1,5-a]pyrazin-1-yl)-N-(4-(trifluoromethyl)pyridin-2-yl)benzamide], the values for the IC50 at BTK(wt) and at BTK(C481S) were 1 to 10 nM and at most 0.1 nM, respectively.

On to `CC(C#N)C(=O)NC12CCC(c3nc(-c4ccc(C(=O)Nc5cc(C(F)(F)F)ccn5)cc4)c4c(N)nccn34)(CC1)C2` (stereo not drawn) [Compound A-10-14, 4-(8-amino-3-(4-(2-cyanopropanamido)bicyclo[2.2.1]heptan-1-yl)imidazo[1,5-a]pyrazin-1-yl)-N-(4-(trifluoromethyl)pyridin-2-yl)benzamide], for which the IC50 at BTK(wt) lay in the range of 1 to 10 nM; at BTK(C481S), 0.1 to 1 nM.

`N#CC1(C(=O)NC23CCC(c4nc(-c5ccc(C(=O)Nc6cc(C(F)(F)F)ccn6)cc5)c5c(N)nccn45)(CC2)C3)CCOCC1` [Compound A-10-15, N-(4-(8-amino-1-(4-((4-(trifluoromethyl)pyridin-2-yl)carbamoyl)phenyl)imidazo[1,5-a]pyrazin-3-yl)bicyclo[2.2.1]heptan-1-yl)-4-cyanotetrahydro-2H-pyran-4-carboxamide]: the IC50 on BTK(wt) was 1 to 10 nM; at BTK(C481S), 0.1 to 1 nM.

Turning to `Nc1nccn2c(C34CCC(NC(=O)c5ccccc5)(CC3)C4)nc(-c3ccc(C(=O)Nc4cc(C(F)(F)F)ccn4)cc3)c12` [Compound A-10-17, 4-(8-amino-3-(4-benzamidobicyclo[2.2.1]heptan-1-yl)imidazo[1,5-a]pyrazin-1-yl)-N-(4-(trifluoromethyl)pyridin-2-yl)benzamide], the results for the IC50 at BTK(wt) and at BTK(C481S) were 10 to 50 nM and 1 to 10 nM, respectively.

In the case of `Nc1nccn2c(C34CCC(NC(=O)c5ccccn5)(CC3)C4)nc(-c3ccc(C(=O)Nc4cc(C(F)(F)F)ccn4)cc3)c12` [Compound A-10-18, N-(4-(8-amino-1-(4-((4-(trifluoromethyl)pyridin-2-yl)carbamoyl)phenyl)imidazo[1,5-a]pyrazin-3-yl)bicyclo[2.2.1]heptan-1-yl)picolinamide], the IC50 on BTK(wt) fell in the range of 10 to 50 nM; at BTK(C481S), 1 to 10 nM.

Consider `Nc1nccn2c(C34CCC(NC(=O)c5cccnc5)(CC3)C4)nc(-c3ccc(C(=O)Nc4cc(C(F)(F)F)ccn4)cc3)c12` [Compound A-10-19, N-(4-(8-amino-1-(4-((4-(trifluoromethyl)pyridin-2-yl)carbamoyl)phenyl)imidazo[1,5-a]pyrazin-3-yl)bicyclo[2.2.1]heptan-1-yl)nicotinamide], for which the IC50 at BTK(wt) lay within 10 to 50 nM; on BTK(C481S), 1 to 10 nM.

In the case of `COc1ccccc1C(=O)NC12CCC(c3nc(-c4ccc(C(=O)Nc5cc(C(F)(F)F)ccn5)cc4)c4c(N)nccn34)(CC1)C2` [Compound A-10-20, N-(4-(8-amino-1-(4-((4-(trifluoromethyl)pyridin-2-yl)carbamoyl)phenyl)imidazo[1,5-a]pyrazin-3-yl)bicyclo[2.2.1]heptan-1-yl)-2-methoxybenzamide], the values for the IC50 on BTK(wt) and on BTK(C481S) were 10 to 50 nM and 1 to 10 nM, respectively.

One may read the IC50 as the point on the concentration scale where inhibition reaches its midpoint.
